Data: the NIST ThermoML archive (doi:10.1021/acs.jced.5b00662)
± gives the expanded uncertainty stated by the source.

Assay: xn = mol fraction of the nth substance listed
Details: 100 kPa, Liquid; for speed of sound: Sing-around technique in a fixed-path interferometer; for mass density: Vibrating tube method

COCCOCCO [2-(2-methoxyethoxy)ethanol] + O
Details | mass density [kg/m3] | speed of sound [m/s]
283.15 K, x1 = 0.9373 | – | 1473.4 ± 1.5
283.15 K, x1 = 0.9483 | 1029.62 ± 2 | 1472.6 ± 1.5
283.15 K, x1 = 0.9601 | 1029.5 ± 2 | 1471.2 ± 1.6
283.15 K, x1 = 0.9674 | 1029.29 ± 2 | 1470.8 ± 1.6
283.15 K, x1 = 0.9893 | 1028.84 ± 2 | 1468.4 ± 1.6
283.15 K, x1 = 0.9932 | 1028.73 ± 2 | 1468.6 ± 1.6
288.15 K, x1 = 0.9373 | – | 1455.8 ± 1.5
288.15 K, x1 = 0.9483 | 1025.24 ± 2 | 1455.1 ± 1.5
288.15 K, x1 = 0.9601 | 1025.13 ± 2 | 1453.9 ± 1.6
288.15 K, x1 = 0.9674 | 1024.9 ± 2 | 1453.3 ± 1.6
288.15 K, x1 = 0.9893 | 1024.45 ± 2 | 1451 ± 1.6
288.15 K, x1 = 0.9932 | 1024.35 ± 2 | 1451 ± 1.6
293.15 K, x1 = 0.9373 | – | 1438.7 ± 1.5
293.15 K, x1 = 0.9483 | 1020.87 ± 2 | 1438 ± 1.5
293.15 K, x1 = 0.9601 | 1020.74 ± 2 | 1436.7 ± 1.5
293.15 K, x1 = 0.9674 | 1020.52 ± 2 | 1436.1 ± 1.6
293.15 K, x1 = 0.9893 | 1020.06 ± 2 | 1433.7 ± 1.6
293.15 K, x1 = 0.9932 | 1019.95 ± 2 | 1433.4 ± 1.6
298.15 K, x1 = 0.9373 | – | 1421.6 ± 1.5
298.15 K, x1 = 0.9483 | 1016.47 ± 2 | 1420.8 ± 1.5
298.15 K, x1 = 0.9601 | 1016.34 ± 2 | 1419.5 ± 1.5
298.15 K, x1 = 0.9674 | 1016.12 ± 2 | 1418.9 ± 1.6
298.15 K, x1 = 0.9893 | 1015.65 ± 2 | 1416.4 ± 1.6
298.15 K, x1 = 0.9932 | 1015.55 ± 2 | 1416.1 ± 1.6
303.15 K, x1 = 0.9373 | – | 1404.5 ± 1.5
303.15 K, x1 = 0.9483 | 1012.06 ± 2 | 1403.6 ± 1.5
303.15 K, x1 = 0.9601 | 1011.93 ± 2 | 1402.3 ± 1.5
303.15 K, x1 = 0.9674 | 1011.71 ± 2 | 1401.7 ± 1.6
303.15 K, x1 = 0.9893 | 1011.24 ± 2 | 1399.1 ± 1.6
303.15 K, x1 = 0.9932 | 1011.12 ± 2 | 1398.9 ± 1.6
308.15 K, x1 = 0.9373 | – | 1387.3 ± 1.5
308.15 K, x1 = 0.9483 | 1007.63 ± 2 | 1386.5 ± 1.5
308.15 K, x1 = 0.9601 | 1007.5 ± 2 | 1385.1 ± 1.5
308.15 K, x1 = 0.9674 | 1007.28 ± 2 | 1384.5 ± 1.5
308.15 K, x1 = 0.9893 | 1006.8 ± 2 | 1381.9 ± 1.6
308.15 K, x1 = 0.9932 | 1006.69 ± 2 | 1381.6 ± 1.6
313.15 K, x1 = 0.9373 | – | 1370.3 ± 1.5
313.15 K, x1 = 0.9483 | 1003.19 ± 2 | 1369.4 ± 1.5
313.15 K, x1 = 0.9601 | 1003.06 ± 2 | 1368.1 ± 1.5
313.15 K, x1 = 0.9674 | 1002.83 ± 2 | 1367.5 ± 1.5
313.15 K, x1 = 0.9893 | 1002.35 ± 2 | 1364.9 ± 1.5
313.15 K, x1 = 0.9932 | 1002.24 ± 2 | 1364.6 ± 1.6
323.15 K, x1 = 0.9373 | – | 1336.5 ± 1.5
323.15 K, x1 = 0.9483 | 994.251 ± 2 | 1335.6 ± 1.5
323.15 K, x1 = 0.9601 | 994.119 ± 2 | 1334.3 ± 1.5
323.15 K, x1 = 0.9674 | 993.893 ± 2 | 1333.7 ± 1.5
323.15 K, x1 = 0.9893 | 993.397 ± 2 | 1330.9 ± 1.6
323.15 K, x1 = 0.9932 | 993.288 ± 2 | 1330.3 ± 1.6
333.15 K, x1 = 0.9373 | – | 1302.9 ± 1.5
333.15 K, x1 = 0.9483 | 985.224 ± 2 | 1302.1 ± 1.5
333.15 K, x1 = 0.9601 | 985.089 ± 2 | 1300.7 ± 1.5
333.15 K, x1 = 0.9674 | 984.87 ± 2 | 1300.2 ± 1.5
333.15 K, x1 = 0.9893 | 984.365 ± 2 | 1297.3 ± 1.6
333.15 K, x1 = 0.9932 | 984.259 ± 2 | 1296.7 ± 1.6
343.15 K, x1 = 0.9373 | – | 1269.6 ± 1.5
343.15 K, x1 = 0.9483 | 976.029 ± 2 | 1268.8 ± 1.5
343.15 K, x1 = 0.9601 | 975.972 ± 2 | 1267.4 ± 1.5
343.15 K, x1 = 0.9674 | 975.754 ± 2 | 1266.9 ± 1.5
343.15 K, x1 = 0.9893 | 975.241 ± 2 | 1263.9 ± 1.6
343.15 K, x1 = 0.9932 | 975.146 ± 2 | 1263.3 ± 1.6
